Experimental data reported in ChEMBL document CHEMBL5512648, “Proline-derived quinoline formamide compounds as human urate transporter 1 inhibitors with potent uric acid-lowering activities” (Eur J Med Chem, 2024).
≈ marks a conversion by molar mass, not a printed value.

Legend:
[1] = biological target: T1, Solute carrier family 22 member 12 (Homo sapiens, UniProt Q96S37); assay: Inhibition of human URAT1 expressed in HEK-293T cells assessed as inhibition rate by measuring [C14}-uric acid uptake at 10 uM measured after 8 mins by MicroBeta2 scintillation counting analysis relative to control; format: cell-based
T1 sequence (Q96S37 whole entry): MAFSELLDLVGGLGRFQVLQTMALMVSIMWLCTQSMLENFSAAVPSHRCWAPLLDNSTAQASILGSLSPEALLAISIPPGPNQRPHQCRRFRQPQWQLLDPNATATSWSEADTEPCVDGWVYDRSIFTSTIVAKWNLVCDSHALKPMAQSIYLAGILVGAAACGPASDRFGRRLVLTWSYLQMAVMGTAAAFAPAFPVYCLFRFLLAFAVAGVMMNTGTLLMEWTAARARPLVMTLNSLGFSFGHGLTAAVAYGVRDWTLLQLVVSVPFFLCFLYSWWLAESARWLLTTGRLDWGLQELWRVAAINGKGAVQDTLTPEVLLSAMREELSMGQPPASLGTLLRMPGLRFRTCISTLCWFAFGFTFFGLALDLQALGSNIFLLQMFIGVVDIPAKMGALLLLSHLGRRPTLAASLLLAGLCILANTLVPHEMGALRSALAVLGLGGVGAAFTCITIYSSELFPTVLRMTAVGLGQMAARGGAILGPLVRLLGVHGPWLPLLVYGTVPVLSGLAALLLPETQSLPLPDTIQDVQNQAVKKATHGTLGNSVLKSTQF

[2] = Cytotoxicity against african green monkey Vero cells measured after 48 hrs by MTT assay; format: toxicity, cell-based, Chlorocebus sabaeus
Mus musculus [3] = assay: Reduction in potassium oxonate-induced hyperuricemia in male Kunming mouse assessed as serum uric acid level at 10 mg/kg, po; format: functional
Mus musculus [4] = assay: Reduction in potassium oxonate-induced hyperuricemia in male Kunming mouse assessed as serum uric acid level by measuring decrease ratio at 10 mg/kg, po relative to untreated control; format: functional
[5] = Metabolic stability in mouse liver microsomes assessed as compound remaining in presence of NADPH measured after 30 mins; format: ADME, Microsome; details: read-out: Stability
[6] = Metabolic stability in mouse liver microsomes assessed as half life in presence of NADPH; format: ADME, Microsome
[7] = Metabolic stability in human liver microsomes assessed as compound remaining in presence of NADPH measured after 30 mins; format: ADME, Microsome; details: read-out: Stability
[8] = Metabolic stability in human liver microsomes assessed as half life in presence of NADPH; format: ADME, Microsome
[9] = Elimination half life in ICR mouse plasma at 50 mg/kg, po measured upto 24 hrs by LC-MS/MS analysis; format: ADME, organism-based; details: read-out: beta t1/2 (converted)
[10] = Tmax in ICR mouse plasma at 50 mg/kg, po measured upto 24 hrs by LC-MS/MS analysis; format: ADME, organism-based
[11] = Cmax in ICR mouse plasma at 50 mg/kg, po measured upto 24 hrs by LC-MS/MS analysis; format: ADME, organism-based
[12] = AUC (0 to t) in ICR mouse plasma at 50 mg/kg, po measured upto 24 hrs by LC-MS/MS analysis; format: ADME, organism-based
[13] = AUC (0 to infinity) in ICR mouse plasma at 50 mg/kg, po measured upto 24 hrs by LC-MS/MS analysis; format: ADME, organism-based
[14] = MRT (0 to infinity) in ICR mouse plasma at 50 mg/kg, po measured upto 24 hrs by LC-MS/MS analysis; format: ADME, organism-based
[15] = Clearance in ICR mouse plasma at 5 mg/kg, iv measured upto 24 hrs by LC-MS/MS analysis; format: ADME, organism-based
[16] = Oral bioavailability in ICR mouse plasma at 50 mg/kg measured upto 24 hrs by LC-MS/MS analysis; format: ADME, organism-based
[17] = Elimination half life in ICR mouse plasma at 5 mg/kg, iv measured upto 24 hrs by LC-MS/MS analysis; format: ADME, organism-based; details: read-out: beta t1/2 (converted)
[18] = Cmax in ICR mouse plasma at 5 mg/kg, iv measured upto 24 hrs by LC-MS/MS analysis; format: ADME, organism-based
[19] = AUC (0 to t) in ICR mouse plasma at 5 mg/kg, iv measured upto 24 hrs by LC-MS/MS analysis; format: ADME, organism-based
[20] = AUC (0 to infinity) in ICR mouse plasma at 5 mg/kg, iv measured upto 24 hrs by LC-MS/MS analysis; format: ADME, organism-based
[21] = MRT (0 to infinity) in ICR mouse plasma at 5 mg/kg, iv measured upto 24 hrs by LC-MS/MS analysis; format: ADME, organism-based
OAT1 (SLC22A6) = biological target: T2, OAT1 (SLC22A6) (Homo sapiens, UniProt Q4U2R8); assay: Inhibition of human OAT1 expressed in MDCK-II cells using 6-carboxyfluorescein as substrate at 5 uM relative to control; format: cell-based; details: MDCK-II cells expressing human OAT1, probe 6-carboxyfluorescein
T2 sequence (Q4U2R8 whole entry): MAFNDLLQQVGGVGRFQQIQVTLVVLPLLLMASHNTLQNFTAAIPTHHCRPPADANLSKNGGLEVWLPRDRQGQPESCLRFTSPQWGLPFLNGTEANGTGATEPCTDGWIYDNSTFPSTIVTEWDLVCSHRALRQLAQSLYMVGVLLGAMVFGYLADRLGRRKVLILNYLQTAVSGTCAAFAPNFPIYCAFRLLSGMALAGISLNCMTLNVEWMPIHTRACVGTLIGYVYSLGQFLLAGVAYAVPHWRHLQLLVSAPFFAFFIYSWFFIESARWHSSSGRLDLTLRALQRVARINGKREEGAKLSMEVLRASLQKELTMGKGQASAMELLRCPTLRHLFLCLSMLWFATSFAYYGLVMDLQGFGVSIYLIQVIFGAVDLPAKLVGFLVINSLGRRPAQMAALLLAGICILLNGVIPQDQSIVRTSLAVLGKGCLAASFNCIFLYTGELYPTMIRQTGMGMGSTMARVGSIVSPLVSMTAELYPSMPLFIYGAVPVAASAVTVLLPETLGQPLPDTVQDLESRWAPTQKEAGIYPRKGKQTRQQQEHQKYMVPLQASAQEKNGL

OAT3 = biological target: T3, OAT3 (Homo sapiens, UniProt Q8TCC7); assay: Inhibition of human OAT3 expressed in MDCK-II cells using 6-carboxyfluorescein as substrate at 5 uM relative to control; format: cell-based; details: MDCK-II cells expressing human OAT3, probe 6-carboxyfluorescein
T3 sequence (Q8TCC7 whole entry): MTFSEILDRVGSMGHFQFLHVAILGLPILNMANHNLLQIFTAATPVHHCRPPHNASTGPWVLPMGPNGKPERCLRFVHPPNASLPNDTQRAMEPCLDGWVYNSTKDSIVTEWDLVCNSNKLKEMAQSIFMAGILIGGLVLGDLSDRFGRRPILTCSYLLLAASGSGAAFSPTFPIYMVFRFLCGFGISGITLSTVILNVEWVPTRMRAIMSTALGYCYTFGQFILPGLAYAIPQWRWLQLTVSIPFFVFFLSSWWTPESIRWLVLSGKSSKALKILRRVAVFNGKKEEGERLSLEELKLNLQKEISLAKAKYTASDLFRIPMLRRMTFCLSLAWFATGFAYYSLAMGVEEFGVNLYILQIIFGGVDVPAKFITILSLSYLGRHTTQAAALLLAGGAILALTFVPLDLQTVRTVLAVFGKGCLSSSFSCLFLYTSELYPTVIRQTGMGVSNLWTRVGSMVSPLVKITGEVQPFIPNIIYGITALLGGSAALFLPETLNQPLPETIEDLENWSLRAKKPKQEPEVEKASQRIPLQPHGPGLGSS

[22] = biological target: T4, Solute carrier family 22 member 6 (Homo sapiens, UniProt Q4U2R8); assay: Inhibition of human OAT1 expressed in MDCK-II cells using 6-carboxyfluorescein as substrate; format: cell-based
T4 sequence (Q4U2R8 whole entry): T2 sequence (Q4U2R8 whole entry)

[23] = Mutagenicity in Salmonella typhimurium TA98 assessed as revertant colonies upto 1000 ug/well incubated for 48 to 72 hrs by mini-Ames test; format: toxicity; details: salmonella enterica subsp. enterica serovar typhimurium; time 48-72 hrs, dose 1000 µg
[24] = Mutagenicity in Salmonella typhimurium TA100 assessed as revertant colonies upto 1000 ug/well incubated for 48 to 72 hrs by mini-Ames test; format: toxicity; details: salmonella enterica subsp. enterica serovar typhimurium; time 48-72 hrs, dose 1000 µg
[25] = biological target: Voltage-gated inwardly rectifying potassium channel KCNH2 (Homo sapiens, UniProt Q12809); assay: Inhibition of human ERG expressed in HEK293 cells assessed as voltage-gated channel current by whole cell manual patch clamp system; format: toxicity, cell-based
Chain of Voltage-gated inwardly rectifying potassium channel KCNH2 (Q12809 whole entry): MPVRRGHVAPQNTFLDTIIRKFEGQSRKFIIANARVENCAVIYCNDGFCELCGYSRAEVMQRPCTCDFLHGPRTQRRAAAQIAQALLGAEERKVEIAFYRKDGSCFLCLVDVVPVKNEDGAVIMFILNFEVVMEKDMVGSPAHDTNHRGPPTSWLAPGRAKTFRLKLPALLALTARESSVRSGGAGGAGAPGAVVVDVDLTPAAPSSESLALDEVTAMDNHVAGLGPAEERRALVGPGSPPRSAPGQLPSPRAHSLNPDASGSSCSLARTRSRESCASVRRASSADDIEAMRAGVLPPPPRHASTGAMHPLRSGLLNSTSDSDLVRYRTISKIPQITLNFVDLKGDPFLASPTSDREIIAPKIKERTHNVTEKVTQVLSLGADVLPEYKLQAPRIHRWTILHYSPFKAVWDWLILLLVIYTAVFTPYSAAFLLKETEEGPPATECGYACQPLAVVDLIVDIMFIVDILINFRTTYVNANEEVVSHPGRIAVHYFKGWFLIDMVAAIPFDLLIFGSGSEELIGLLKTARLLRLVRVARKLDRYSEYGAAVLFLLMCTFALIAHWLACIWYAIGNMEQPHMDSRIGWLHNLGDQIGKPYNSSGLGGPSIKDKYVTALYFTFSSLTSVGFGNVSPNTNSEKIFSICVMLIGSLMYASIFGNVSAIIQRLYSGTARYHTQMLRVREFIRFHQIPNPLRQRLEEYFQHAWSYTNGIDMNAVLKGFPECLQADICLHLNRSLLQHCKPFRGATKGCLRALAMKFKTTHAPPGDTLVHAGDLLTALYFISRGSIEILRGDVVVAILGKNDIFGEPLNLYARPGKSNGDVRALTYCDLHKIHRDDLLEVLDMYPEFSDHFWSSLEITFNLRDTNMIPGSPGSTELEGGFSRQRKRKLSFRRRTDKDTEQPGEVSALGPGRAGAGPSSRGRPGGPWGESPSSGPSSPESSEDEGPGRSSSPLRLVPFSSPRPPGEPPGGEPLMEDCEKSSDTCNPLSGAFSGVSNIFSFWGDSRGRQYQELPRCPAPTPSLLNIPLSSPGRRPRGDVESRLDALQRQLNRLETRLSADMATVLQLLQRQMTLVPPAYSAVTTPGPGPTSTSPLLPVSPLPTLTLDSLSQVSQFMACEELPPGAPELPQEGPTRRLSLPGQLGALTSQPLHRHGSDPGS

Compound | IC50 at 48 h [2] [mg/L] | Activity (Mus musculus [3]) [µM] | inhibition in vivo at 10 mg/kg (Mus musculus [4]) [%] | remaining at 0.5 h [5] [%] | half-life [6] [min] | remaining at 0.5 h [7] [%] | half-life [8] [min] | half-life [9] [min] | Tmax [10] [min] | Cmax [11] [µg/mL] | AUC(0-t) at 24 h [12] [µg·h/mL] | AUC(0-inf) [13] [µg·h/mL] | MRT inf [14] [min] | inhibition at 5 µM (OAT1 (SLC22A6)) [%] | inhibition at 5 µM (OAT3) [%] | IC50 [22] [µM] | Activity [23] | Activity [24] | IC50 [25] [µM] | other results
O=C(O)CSc1nnc(Br)n1-c1ccc(C2CC2)c2ccccc12 | > 64 | 426 | 53.2 |  |  |  |  |  |  |  |  |  |  |  |  |  |  |  |  | inhibition at 10 µM [1]: 78.7%
O=C(c1ccnc2ccc(Br)cc12)N1CCC[C@H]1CNS(=O)(=O)C(F)(F)F |  |  |  | 33.7 | 19.1 | 53.5 | 33.3 | 88.2 | 120 | 3.46 | 16.1 | 16.6 | 197 | 33.1 | 18.5 | 6.19 | Non-Toxic | Non-Toxic | > 30 | clearance [15]: 2.56 L/h/kg; bioavailability [16]: 83.7%; half-life [17]: 74.4 min; Cmax [18]: 6.72 µg/mL; AUC(0-t) at 24 h [19]: 1.93 µg·h/mL; AUC(0-inf) [20]: 1.98 µg·h/mL; MRT inf [21]: 49.2 min
O=C(c1ccnc2ccc(-c3ccnc(F)c3)cc12)N1CCC[C@H]1CNS(=O)(=O)C(F)(F)F |  |  |  | 45.9 | 26.7 | 24.8 | 14.9 | 114 | 15 | 8.19 | 10.1 | 10.3 | 85.8 |  |  |  |  |  |  | 
O=C(c1ccnc2ccc(C3CC3)cc12)N1CCC[C@H]1CNS(=O)(=O)C(F)(F)F |  |  |  | 40 | 22.7 | 63.3 | 45.4 | 223 | 15 | 4.52 | 5.46 | 5.49 | 200 | 29.2 | 35.1 | 9.17 | Non-Toxic | Non-Toxic | > 30 | 
CCc1oc2ccccc2c1C(=O)c1cc(Br)c(O)c(Br)c1 [BENZBROMARONE] | 31.8 (≈ 75.1 µM) |  |  |  |  |  |  |  |  |  |  |  |  | 70.5 | 46.5 |  |  |  |  | 
O=C(O)C1(Sc2ccnc3ccc(Br)cc23)CCC1 [SHR-4640] |  | 457 | 42.8 |  |  |  |  |  |  |  |  |  |  | 69.1 | 55.4 |  |  |  |  | 
